Results taken from paper PMC10245392, “Fed- and Fasted-State Performance of Pretomanid Amorphous Solid Dispersions Formulated with an Enteric Polymer” (Molecular Pharmaceutics, 2023).
In brackets after ≈: the same amount, converted by molar mass. Several values for one entry are separate records, joined by “and”; a condition that tells them apart may be missing. Equal entries are not always repeated. Where two headings read alike, the source gives them in different places.

Assays:
[1] = the highest pKa value at 25 °C; ref 42 and references of Table S2; cited from earlier work
[2] = cited from earlier work
[3] = monkeys, PTM suspension in 0.5% sodium carboxymethyl cellulose; cited from earlier work
[4] = rats, PTM with hydroxypropyl-β-cyclodextrin; cited from earlier work
[5] = humans, 200 mg PTM with high-calorie, high-fat meal; cited from earlier work
[6] = guinea pig, in vivo; cited from earlier work
physchem [7] = conditions: kinetic from dmso stock
physchem [8] = assay: physchem
[9] = Glass transition temperature by DSC; assay type: physicochemical; conditions: for reduced glass transition temperature (Tg/Tm): calculated as Tg/Tm
Procedure: The glass transition temperature (Tg) of ASD samples was measured by a TA Q2000 differential scanning calorimeter (DSC) equipped with an RCS90 refrigeration unit (TA Instruments, New Castle, DE). The temperature calibration was performed using indium and tin, while enthalpy calibration was conducted with indium. The samples (5–10 mg) were added to aluminum pans with a pinhole lid (Tzero pan, TA Instrument, DE). The sample was equilibrated at −20 °C and heated from −20 to 210 °C at 5 °C/min then cooled back down to −20 °C at 10 °C/min under a nitrogen flow of 50 mL/min. The heating and cooling cycle was repeated three times to remove residual solvent and thermal history, and the last cycle was used for analysis.

[10] = Drug nucleation induction time (UV extinction at 440 nm); assay type: physicochemical; conditions: for induction time at 160 μg/mL: no polymer, 37 °C
[11] = not given; remark: listed apart in the source

CN(C)CCO [2-Dimethylaminoethanol]
pKa [1]: 9.23

O=[N+]([O-])c1cn2c(n1)OC[C@@H](OCc1ccc(OC(F)(F)F)cc1)C2 [PTM, Pretomanid]
factor of increase of equilibrium solubility (pH 5.8): ~6
factor of increase of equilibrium solubility (pH 6.5): ~3
water solubility [2]: 10 to 20 µg/mL
mean oral bioavailability [3]: 19%
mean oral bioavailability [4]: 52%
increase in AUC0-inf with food [5]: 88%
increase in Cmax with food [5]: 76%
systemic exposure [6]: 6.7–13.5%
solubility (physchem [7]; pH 1.6, simulated gastric fluid): 141 ± 3.7 µg/mL (≈ 392 µM)
solubility (physchem [7]; pH 3, aqueous buffer): 143 ± 2.4 µg/mL (≈ 399 µM)
solubility (physchem [7]; pH 5, aqueous buffer): 160 ± 5.7 µg/mL (≈ 444 µM)
solubility (physchem [7]; pH 6.5, aqueous buffer): 166 ± 6.2 µg/mL (≈ 462 µM)
solubility (physchem [7]; pH 6.5, fassif): 308 ± 12 µg/mL (≈ 857 µM)
solubility thermodynamic (physchem [8]): 15 to 18 µg/mL (≈ 41.8 to 50.1 µM)
solubility (physchem [8]; 37 °C, pH 1.6, simulated gastric fluid, thermodynamic from solid): 15.2 ± 1.4 µg/mL (≈ 42.3 µM)
solubility (physchem [8]; 37 °C, pH 3, aqueous buffer, thermodynamic from solid): 17.8 ± 0.3 µg/mL (≈ 49.5 µM)
solubility (physchem [8]; 37 °C, pH 5, aqueous buffer, thermodynamic from solid): 16.8 ± 0.1 µg/mL (≈ 46.8 µM)
solubility (physchem [8]; 37 °C, pH 5.8, aqueous buffer, thermodynamic from solid): 17 ± 0.3 µg/mL (≈ 47.3 µM)
solubility (physchem [8]; 37 °C, pH 5.8, fessif, thermodynamic from solid): 108.1 ± 0.1 µg/mL (≈ 301 µM)
solubility (physchem [8]; 37 °C, pH 6.5, aqueous buffer, thermodynamic from solid): 16.2 ± 1.4 µg/mL (≈ 45.1 µM)
solubility (physchem [8]; 37 °C, pH 6.5, fassif, thermodynamic from solid): 53.8 ± 4 µg/mL (≈ 150 µM)
solubility (physchem [8]; pH 5.8): ~110 µg/mL (≈ 306 µM)
reduced glass transition temperature (Tg/Tm) [9]: 0.67
Tg (glass transition temperature) ([9]; neat drug): 10 °C
induction time [10]: 77.6 ± 13.6 min and ~77 min
induction time at 160 μg/mL ([10]; FaSSIF V1 (pH 6.5)): 0.9 ± 0.3 min
induction time at 160 μg/mL ([10]; HCl solution (pH 1.6)): 1.6 ± 0.2 min
induction time ([10]; PTM 80 μg/mL, PB (pH 6.5), 100 μg/mL HPMC): ~22 min
nucleation induction time in solution ([10]; media of Table 2, no polymer): less than 2 min
induction time (no crystallization observed up to) ([10]; pH 6.5): > 1000 min
induction time at 160 μg/mL ([10]; phosphate buffer (pH 3.0)): 1.3 ± 0.1 min
induction time at 160 μg/mL ([10]; phosphate buffer (pH 5.0)): 1.6 ± 0.2 min
induction time at 160 μg/mL ([10]; phosphate buffer (pH 6.5)): 1.4 ± 0.2 min
A/C ratio (amorphous/crystalline solubility ratio) ([11]; HCl solution (pH 1.6)): 9.3
amorphous/crystalline solubility (A/C) ratio ([11]; buffer solutions, overall): 8–10
A/C ratio (amorphous/crystalline solubility ratio) ([11]; phosphate buffer (pH 3.0)): 8.1
A/C ratio (amorphous/crystalline solubility ratio) ([11]; phosphate buffer (pH 5.0)): 9.5
A/C ratio (amorphous/crystalline solubility ratio) ([11]; phosphate buffer (pH 6.5)): 10.2

C[C@]1(COc2ccc(N3CCC(Oc4ccc(OC(F)(F)F)cc4)CC3)cc2)Cn2cc([N+](=O)[O-])nc2O1 [delamanid]
Tg (glass transition temperature) ([2]; neat drug): ~43 °C
reduced glass transition temperature (Tg/Tm) [9]: 0.64
